Test results from patent US20040209914A1, “Aromatic sulfone hydroxamic acids and their use as protease inhibitors” (priority 2000, published 2004).

Tests used:
Experiment in all cases: biochemical
[1] = molecular target: T1, Recombinant human MMP-1 (Homo sapiens, UniProt P03956); details: fluorogenic MCA-peptide substrate, pH 7.5, room temperature
T1 construct: made in house; host or cells: transfected HT-1080 cells
T1 sequence (P03956 100-469): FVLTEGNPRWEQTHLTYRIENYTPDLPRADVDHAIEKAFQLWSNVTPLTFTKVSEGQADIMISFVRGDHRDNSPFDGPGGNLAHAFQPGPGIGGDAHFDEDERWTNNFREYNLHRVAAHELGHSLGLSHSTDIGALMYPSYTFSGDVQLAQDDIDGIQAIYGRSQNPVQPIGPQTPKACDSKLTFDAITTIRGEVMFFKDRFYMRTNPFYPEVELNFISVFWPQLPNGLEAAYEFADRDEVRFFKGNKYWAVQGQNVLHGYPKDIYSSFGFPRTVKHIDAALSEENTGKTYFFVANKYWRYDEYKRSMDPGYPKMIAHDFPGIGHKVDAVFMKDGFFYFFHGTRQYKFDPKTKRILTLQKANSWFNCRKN
Protocol: (§1) Recombinant human MMP-1, MMP-2, MMP-9, MMP-13, and were used in this assay. These enzymes were prepared in the Assignee's es following usual laboratory procedures. Specifics for preparing and e enzymes can be found in the scientific literature describing these See, e.g., Enzyme Nomenclature (Academic Press, San Diego, Calif., d the citations therein).
The MMP-1 was obtained from MMP-1 expressing transfected HT-1080 cells provided by Dr. Harold Welgus of Washington University in St. Louis, Mo. The MMP-1 was activated using 4-aminophenylmercuric acetate (APMA), and then purified over a hydroxamic acid column.
(§2) The enzyme substrate was a methoxycoumarin-containing polypeptide having the following sequence:
(§3) MCA-ProLeuGlyLeuDpaAlaArgNH2
(§4) Here, “MCA” is methoxycoumarin and “Dpa” is 3-(2,4-dinitrophenyl)-L-2,3-diaminopropionyl alanine.
(§5) These solutions were then compared to a control (which contained equal amount of DMSO/buffer solution, but no hydroxamate compound) using Microfluor™ White Plates (Dynatech, Chantilly, Va.). Specifically, The MMPs were activated with APMA or trypsin. […] The control likewise was incubated at room temperature in separate plates with the MMP and 4 uM of the MMP substrate. […] Inhibition was measured as a reduction in fluorescent intensity as a function of inhibitor concentration using a Perkin Elmer (Norwalk, Conn.) L550 plate reader. The IC50's were then calculated from these measurements.

[2] = molecular target: T2, Recombinant human MMP-2 (Homo sapiens, UniProt P08253); details: fluorogenic MCA-peptide substrate, pH 7.5, room temperature; read-out: MMP-2 IC50
T2 construct: made in house
T2 sequence (P08253 110-660): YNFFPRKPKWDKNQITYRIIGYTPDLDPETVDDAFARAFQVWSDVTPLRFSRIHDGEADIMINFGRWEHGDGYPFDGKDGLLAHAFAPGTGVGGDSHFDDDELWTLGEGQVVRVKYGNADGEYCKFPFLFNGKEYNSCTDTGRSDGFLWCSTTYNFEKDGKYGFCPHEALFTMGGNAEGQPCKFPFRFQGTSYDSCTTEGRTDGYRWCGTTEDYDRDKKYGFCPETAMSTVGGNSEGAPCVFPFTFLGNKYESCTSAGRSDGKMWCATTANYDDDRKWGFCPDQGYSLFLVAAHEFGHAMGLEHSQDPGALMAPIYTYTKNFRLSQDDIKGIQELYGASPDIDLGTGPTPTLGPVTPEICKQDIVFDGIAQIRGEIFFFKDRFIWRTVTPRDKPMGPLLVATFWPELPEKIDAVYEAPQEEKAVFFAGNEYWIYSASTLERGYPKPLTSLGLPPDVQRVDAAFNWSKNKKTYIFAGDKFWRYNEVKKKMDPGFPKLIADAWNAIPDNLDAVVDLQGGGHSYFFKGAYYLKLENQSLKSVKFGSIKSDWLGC
Protocol: as §1
The MMP-2 was obtained from MMP-2 expressing transfected cells provided by Dr. Gregory Goldberg of Washington University.
as §2, §3, §4, §5

[3] = molecular target: T3, Recombinant human MMP-13 (Homo sapiens, UniProt P45452); details: fluorogenic MCA-peptide substrate, pH 7.5, room temperature; read-out: MMP-13 IC50
T3 construct: made in house; host or cells: baculovirus / insect cells
Protocol: as §1
The expressed proenzyme was first purified over a heparin agarose column, and then over a chelating zinc chloride column. The proenzyme was then activated by APMA for use in the assay.
as §2, §3, §4, §5

| SMILES | IC50 [1] | IC50 [2] | IC50 [3] |
| --- | --- | --- | --- |
| CCN1CCC(C(=O)NO)(S(=O)(=O)c2ccc(N3CCC(C(=O)c4ccc(N(C)C)cc4)CC3)cc2)CC1 [Example 168] | > 10000 nM | 2180 nM | 2.1 nM |
| CCCc1ccc(C(=O)C2CCN(c3ccc(S(=O)(=O)C4(C(=O)NO)CCN(CC)CC4)cc3)CC2)cc1 [Example 170] | > 10000 nM | 134 nM | 1.3 nM |
| C#CCN1CCC(C(=O)NO)(S(=O)(=O)c2ccc(N3CCC(C(=O)c4ccc(N(C)CC)cc4)CC3)cc2)CC1 [Example 174] | > 10000 nM | 1070 nM | 1.1 nM |
| C#CCN1CCC(C(=O)NO)(S(=O)(=O)c2ccc(N3CCC(C(=O)c4ccc5ccccc5c4)CC3)cc2)CC1 [Example 175] | > 10000 nM | 137 nM | 0.7 nM |
| C=CCN1CCC(C(=O)NO)(S(=O)(=O)c2ccc(N3CCC(C(=O)c4ccc(Cl)cc4)CC3)cc2)CC1 [Example 180] | > 10000 nM | 52.7 nM | 0.3 nM |
| C=CCN1CCC(C(=O)NO)(S(=O)(=O)c2ccc(N3CCC(C(=O)c4ccc(N(C)CC)cc4)CC3)cc2)CC1 [Example 181] | > 10000 nM | 936 nM | 2.3 nM |
| C=CCN1CCC(C(=O)NO)(S(=O)(=O)c2ccc(N3CCC(C(=O)c4ccc(OC)cc4)CC3)cc2)CC1 [Example 182] | > 10000 nM | 115 nM | 1.1 nM |
| O=C(NO)C1(S(=O)(=O)c2ccc(N3CCC(Sc4nc5ccccc5s4)CC3)cc2)CCN(C2CC2)CC1 [Example 185] | > 10000 nM | 87.4 nM | 5.1 nM |
| COCCN1CCC(C(=O)NO)(S(=O)(=O)c2ccc(N3CCC(C(=O)c4cccc(Cl)c4)CC3)cc2)CC1 [Example 186] | > 10000 nM | 94.4 nM | 3.5 nM |
| O=C(c1ccc2ccccc2c1)C1CCN(c2ccc(S(=O)(=O)C3(C(=O)NO)CCN(CC4CC4)CC3)cc2)CC1 [Example 187] | > 10000 nM | 242 nM | 2.7 nM |
| COc1ccc(C(=O)C2CCN(c3ccc(S(=O)(=O)C4(C(=O)NO)CCN(CC5CC5)CC4)cc3)CC2)cc1 [Example 188] | > 10000 nM | 250 nM | 2 nM |
| CC(C)Cc1ccc(C(=O)C2CCN(c3ccc(S(=O)(=O)C4(C(=O)NO)CCN(C5CC5)CC4)cc3)CC2)cc1 [Example 189] | > 10000 nM | 258 nM | < 0.1 nM |
| O=C(c1ccc(Br)cc1)C1CCN(c2ccc(S(=O)(=O)C3(C(=O)NO)CCN(C4CC4)CC3)cc2)CC1 [Example 190] | > 10000 nM | 23.1 nM | 0.2 nM |
| COCCN1CCC(C(=O)NO)(S(=O)(=O)c2ccc(N3CCC(C(=O)c4ccc(OC(C)C)c(C)c4)CC3)cc2)CC1 [Example 191] | > 10000 nM | 2290 nM | 3 nM |
| CCN1CCC(C(=O)NO)(S(=O)(=O)c2ccc(N3CCC(C(=O)c4ccc(OC)cc4)CC3)cc2)CC1 [Example 194] | > 10000 nM | 1230 nM | 9.1 nM |
| CCN1CCC(C(=O)NO)(S(=O)(=O)c2ccc(N3CCC(C(=O)c4ccc(CC5CCC5)cc4)CC3)cc2)CC1 [Example 195] | > 10000 nM | 463 nM | 0.3 nM |
| O=C(c1ccc(CC2CCC2)cc1)C1CCN(c2ccc(S(=O)(=O)C3(C(=O)NO)CCN(C4CC4)CC3)cc2)CC1 [Example 196] | > 10000 nM | 750 nM | 1 nM |
| O=C(c1ccc(CC2CCCC2)cc1)C1CCN(c2ccc(S(=O)(=O)C3(C(=O)NO)CCN(C4CC4)CC3)cc2)CC1 [Example 197] | > 10000 nM | 1720 nM | 1.4 nM |

| SMILES | IC50 [1] | IC50 [2] | IC50 [3] |
| --- | --- | --- | --- |
| O=C(c1ccc(CCC2CCCC2)cc1)C1CCN(c2ccc(S(=O)(=O)C3(C(=O)NO)CCN(C4CC4)CC3)cc2)CC1 [Example 199] | > 10000 nM | 3390 nM | 11.7 nM |
| CCC(C)Cc1ccc(C(=O)C2CCN(c3ccc(S(=O)(=O)C4(C(=O)NO)CCN(C5CC5)CC4)cc3)CC2)cc1 (stereo not drawn) [Example 200] | > 10000 nM | 1400 nM | 0.5 nM |
| COCCN1CCC(C(=O)NO)(S(=O)(=O)c2ccc(N3CCC(C(=O)c4ccc(CC5CCC5)cc4)CC3)cc2)CC1 [Example 201] | > 10000 nM | 6320 nM | 0.2 nM |
| COCCN1CCC(C(=O)NO)(S(=O)(=O)c2ccc(N3CCC(C(=O)c4ccc(CC5CCCC5)cc4)CC3)cc2)CC1 [Example 202] | > 10000 nM | 1020 nM | 0.4 nM |
| COCCN1CCC(C(=O)NO)(S(=O)(=O)c2ccc(N3CCC(C(=O)c4ccc(CC5CCCCC5)cc4)CC3)cc2)CC1 [Example 203] | 2370 nM | 816 nM | 0.6 nM |
| COCCN1CCC(C(=O)NO)(S(=O)(=O)c2ccc(N3CCC(C(=O)c4ccc(CCC5CCCC5)cc4)CC3)cc2)CC1 [Example 204] | > 10000 nM | 1050 nM | 0.2 nM |
| CCC(C)Cc1ccc(C(=O)C2CCN(c3ccc(S(=O)(=O)C4(C(=O)NO)CCN(CCOC)CC4)cc3)CC2)cc1 (stereo not drawn) [Example 205] | > 10000 nM | 412 nM | < 0.1 nM |
| COc1ccc(C(=O)C2CCN(c3ccc(S(=O)(=O)C4(C(=O)NO)CCN(S(C)(=O)=O)CC4)cc3)CC2)cc1 [Example 206] | > 10000 nM | 199 nM | 1.8 nM |
| Cc1ccc(C(=O)C2CCN(c3ccc(S(=O)(=O)C4(C(=O)NO)CCN(S(C)(=O)=O)CC4)cc3)CC2)cc1 [Example 207] | > 10000 nM | 4.4 nM | 1.1 nM |
| CCN1CCC(C(=O)NO)(S(=O)(=O)c2ccc(N3CCC(C(=O)c4ccc(C)cc4)CC3)cc2)CC1 [Example 208] | > 10000 nM | 19.6 nM | 0.1 nM |
| Cc1ccc(C(=O)C2CCN(c3ccc(S(=O)(=O)C4(C(=O)NO)CCN(CC5CC5)CC4)cc3)CC2)cc1 [Example 210] | > 10000 nM | 13.1 nM | 1.1 nM |
| COCCN1CCC(C(=O)NO)(S(=O)(=O)c2ccc(N3CCC(C(=O)c4ccc(Cl)c(C)c4)CC3)cc2)CC1 [Example 211] | > 10000 nM | 122 nM | 1.2 nM |
| CCc1ccc(C(=O)C2CCN(c3ccc(S(=O)(=O)C4(C(=O)NO)CCN(CCOC)CC4)cc3)CC2)cc1 [Example 212] | > 10000 nM | 110 nM | 0.2 nM |
| O=C(c1ccc(Cl)cc1)C1CCN(c2ccc(S(=O)(=O)C3(C(=O)NO)CCN(C4CC4)CC3)cc2)CC1 [Example 213] | > 10000 nM | 25.8 nM | 0.5 nM |
| Cc1cc(C(=O)C2CCN(c3ccc(S(=O)(=O)C4(C(=O)NO)CCN(C5CC5)CC4)cc3)CC2)ccc1Cl [Example 214] | > 10000 nM | 160 nM | 1.7 nM |
| CC(C)Oc1ccc(C(=O)C2CCN(c3ccc(S(=O)(=O)C4(C(=O)NO)CCN(C5CC5)CC4)cc3)CC2)cc1 [Example 215] | > 10000 nM | 22.7 nM | 0.9 nM |
| CC(C)COc1ccc(C(=O)C2CCN(c3ccc(S(=O)(=O)C4(C(=O)NO)CCN(C5CC5)CC4)cc3)CC2)cc1 [Example 216] | > 10000 nM | 46.4 nM | 1.5 nM |
| CC(C)CCOc1ccc(C(=O)C2CCN(c3ccc(S(=O)(=O)C4(C(=O)NO)CCN(C5CC5)CC4)cc3)CC2)cc1 [Example 217] | > 10000 nM | 270 nM | 1.3 nM |
